The NIST ThermoML archive (doi:10.1021/je0202073)
Numbers after ± are expanded uncertainties.

Assays:
[1] = xn = mol fraction of the nth substance listed; settings: 101.3 kPa, Liquid
[2] = excess molar enthalpy (molar enthalpy of mixing); xn = mol fraction of the nth substance listed; settings: 101.3 kPa, Liquid, Calvet calorimetry
[3] = Liquid
[4] = refractive index (Na D-line) (dimensionless); settings: 303.15 K; 101.33 kPa; Liquid; Abbe refractometer

CCOC(=O)CC [ethyl propanoate] + CC(C)(C)O
excess molar volume ([1]; 303.15 K, x1 = 0.0345): 7.6e-07 ± 6e-08 m3/mol
excess molar volume ([1]; 303.15 K, x1 = 0.0905): 2.12e-06 ± 7e-08 m3/mol
excess molar volume ([1]; 303.15 K, x1 = 0.1495): 3.31e-06 ± 7e-08 m3/mol
excess molar volume ([1]; 303.15 K, x1 = 0.1943): 4.02e-06 ± 7e-08 m3/mol
excess molar volume ([1]; 303.15 K, x1 = 0.2497): 4.82e-06 ± 8e-08 m3/mol
excess molar volume ([1]; 303.15 K, x1 = 0.2987): 5.39e-06 ± 8e-08 m3/mol
excess molar volume ([1]; 303.15 K, x1 = 0.3496): 5.77e-06 ± 9e-08 m3/mol
excess molar volume ([1]; 303.15 K, x1 = 0.3997): 6.19e-06 ± 9e-08 m3/mol
excess molar volume ([1]; 303.15 K, x1 = 0.4466): 6.39e-06 ± 9e-08 m3/mol
excess molar volume ([1]; 303.15 K, x1 = 0.4486): 6.45e-06 ± 9e-08 m3/mol
excess molar volume ([1]; 303.15 K, x1 = 0.4998): 6.48e-06 ± 9e-08 m3/mol
excess molar volume ([1]; 303.15 K, x1 = 0.5006): 6.53e-06 ± 9e-08 m3/mol
excess molar volume ([1]; 303.15 K, x1 = 0.5163): 6.52e-06 ± 9e-08 m3/mol
excess molar volume ([1]; 303.15 K, x1 = 0.5188): 6.51e-06 ± 9e-08 m3/mol
excess molar volume ([1]; 303.15 K, x1 = 0.5569): 6.47e-06 ± 9e-08 m3/mol
excess molar volume ([1]; 303.15 K, x1 = 0.5646): 6.42e-06 ± 9e-08 m3/mol
excess molar volume ([1]; 303.15 K, x1 = 0.5964): 6.31e-06 ± 9e-08 m3/mol
excess molar volume ([1]; 303.15 K, x1 = 0.6368): 6.07e-06 ± 9e-08 m3/mol
excess molar volume ([1]; 303.15 K, x1 = 0.6458): 6e-06 ± 9e-08 m3/mol
excess molar volume ([1]; 303.15 K, x1 = 0.7044): 5.45e-06 ± 8e-08 m3/mol
excess molar volume ([1]; 303.15 K, x1 = 0.7533): 4.87e-06 ± 8e-08 m3/mol
excess molar volume ([1]; 303.15 K, x1 = 0.8103): 4.04e-06 ± 8e-08 m3/mol
excess molar volume ([1]; 303.15 K, x1 = 0.858): 3.25e-06 ± 7e-08 m3/mol
excess molar volume ([1]; 303.15 K, x1 = 0.9096): 2.24e-06 ± 7e-08 m3/mol
excess molar volume ([1]; 303.15 K, x1 = 0.9432): 1.54e-06 ± 6e-08 m3/mol
excess molar volume ([1]; 318.15 K, x1 = 0.0694): 1.85e-06 ± 6e-08 m3/mol
excess molar volume ([1]; 318.15 K, x1 = 0.1223): 2.99e-06 ± 7e-08 m3/mol
excess molar volume ([1]; 318.15 K, x1 = 0.1759): 3.87e-06 ± 7e-08 m3/mol
excess molar volume ([1]; 318.15 K, x1 = 0.2144): 4.51e-06 ± 8e-08 m3/mol
excess molar volume ([1]; 318.15 K, x1 = 0.2746): 5.29e-06 ± 8e-08 m3/mol
excess molar volume ([1]; 318.15 K, x1 = 0.3188): 5.79e-06 ± 9e-08 m3/mol
excess molar volume ([1]; 318.15 K, x1 = 0.3648): 6.16e-06 ± 9e-08 m3/mol
excess molar volume ([1]; 318.15 K, x1 = 0.4303): 6.43e-06 ± 9e-08 m3/mol
excess molar volume ([1]; 318.15 K, x1 = 0.4669): 6.5e-06 ± 9e-08 m3/mol
excess molar volume ([1]; 318.15 K, x1 = 0.5429): 6.53e-06 ± 9e-08 m3/mol
excess molar volume ([1]; 318.15 K, x1 = 0.596): 6.43e-06 ± 9e-08 m3/mol
excess molar volume ([1]; 318.15 K, x1 = 0.6662): 6.05e-06 ± 9e-08 m3/mol
excess molar volume ([1]; 318.15 K, x1 = 0.7319): 5.43e-06 ± 8e-08 m3/mol
excess molar volume ([1]; 318.15 K, x1 = 0.8088): 4.45e-06 ± 8e-08 m3/mol
excess molar volume ([1]; 318.15 K, x1 = 0.8557): 3.75e-06 ± 8e-08 m3/mol
excess molar volume ([1]; 318.15 K, x1 = 0.9183): 2.28e-06 ± 7e-08 m3/mol
excess molar enthalpy ([2]; 299.15 K, x1 = 0.0555): 0.0801 ± 0.00287 kcal/mol
excess molar enthalpy ([2]; 299.15 K, x1 = 0.1332): 0.183 ± 0.00335 kcal/mol
excess molar enthalpy ([2]; 299.15 K, x1 = 0.2151): 0.271 ± 0.00406 kcal/mol
excess molar enthalpy ([2]; 299.15 K, x1 = 0.2979): 0.346 ± 0.00454 kcal/mol
excess molar enthalpy ([2]; 299.15 K, x1 = 0.3767): 0.397 ± 0.00502 kcal/mol
excess molar enthalpy ([2]; 299.15 K, x1 = 0.4164): 0.417 ± 0.00526 kcal/mol
excess molar enthalpy ([2]; 299.15 K, x1 = 0.4497): 0.428 ± 0.00526 kcal/mol
excess molar enthalpy ([2]; 299.15 K, x1 = 0.477): 0.432 ± 0.0055 kcal/mol
excess molar enthalpy ([2]; 299.15 K, x1 = 0.5513): 0.43 ± 0.00526 kcal/mol
excess molar enthalpy ([2]; 299.15 K, x1 = 0.6351): 0.412 ± 0.00526 kcal/mol
excess molar enthalpy ([2]; 299.15 K, x1 = 0.73): 0.354 ± 0.00478 kcal/mol
excess molar enthalpy ([2]; 299.15 K, x1 = 0.8294): 0.257 ± 0.00406 kcal/mol
excess molar enthalpy ([2]; 299.15 K, x1 = 0.9242): 0.132 ± 0.00311 kcal/mol
excess molar enthalpy ([2]; 318.15 K, x1 = 0.051): 0.0699 ± 0.00263 kcal/mol
excess molar enthalpy ([2]; 318.15 K, x1 = 0.1094): 0.14 ± 0.00311 kcal/mol
excess molar enthalpy ([2]; 318.15 K, x1 = 0.1681): 0.209 ± 0.00359 kcal/mol
excess molar enthalpy ([2]; 318.15 K, x1 = 0.2276): 0.271 ± 0.00406 kcal/mol
excess molar enthalpy ([2]; 318.15 K, x1 = 0.2892): 0.328 ± 0.0043 kcal/mol
excess molar enthalpy ([2]; 318.15 K, x1 = 0.3477): 0.367 ± 0.00478 kcal/mol
excess molar enthalpy ([2]; 318.15 K, x1 = 0.4028): 0.395 ± 0.00502 kcal/mol
excess molar enthalpy ([2]; 318.15 K, x1 = 0.4347): 0.41 ± 0.00526 kcal/mol
excess molar enthalpy ([2]; 318.15 K, x1 = 0.4528): 0.415 ± 0.00526 kcal/mol
excess molar enthalpy ([2]; 318.15 K, x1 = 0.4786): 0.424 ± 0.00526 kcal/mol
excess molar enthalpy ([2]; 318.15 K, x1 = 0.5297): 0.425 ± 0.00526 kcal/mol
excess molar enthalpy ([2]; 318.15 K, x1 = 0.5872): 0.419 ± 0.00526 kcal/mol
excess molar enthalpy ([2]; 318.15 K, x1 = 0.6499): 0.398 ± 0.00502 kcal/mol
excess molar enthalpy ([2]; 318.15 K, x1 = 0.7164): 0.36 ± 0.00478 kcal/mol
excess molar enthalpy ([2]; 318.15 K, x1 = 0.7897): 0.3 ± 0.0043 kcal/mol
excess molar enthalpy ([2]; 318.15 K, x1 = 0.8641): 0.217 ± 0.00382 kcal/mol
excess molar enthalpy ([2]; 318.15 K, x1 = 0.9381): 0.114 ± 0.00311 kcal/mol

CCOC=O [ethyl methanoate]
mass density ([3]; 298.15 K, 101.33 kPa, vibrating tube): 914.53 ± 0.94 kg/m3
Normal boiling temperature ([3]; Ebulliometric method (Recirculating still)): 54.14 ± 0.13 °C
refractive index [4]: 1.355 ± 0.0006
